Assay results from paper PMC8395285, “Novel 2-(Adamantan-1-ylamino)Thiazol-4(5H)-One Derivatives and Their Inhibitory Activity towards 11β-HSD1—Synthesis, Molecular Docking and In Vitro Studies” (International Journal of Molecular Sciences, 2021).

What was measured:
11β-HSD1 = target: T1, 11β-HSD1 (Homo sapiens, UniProt P28845); assay: Inhibition of 11β-HSD1 (cortisone to cortisol, human liver microsomes, cortisol ELISA); type: biochemical; conditions: for inhibition at 10 µM: 10 µM compound, 2.5 h at 37 °C; for IC50: concentrations 0.625-10.0 µM, read from the chart
T1 construct: Human liver microsomes were used as a source of 11β-HSD1 enzyme; tissue XenoTech Lot No.1410013; host or cells: pooled human liver microsomes, mixed gender
Procedure: To stop the reaction, 10 µL of a 100 µM solution of 18β-glycyrrhetinic acid in PBS was added. The level of cortisol obtained in the reaction was measured by commercially available ELISA kit.
(§1) As a control, analogous tests without the addition of inhibitors were used. Half the inhibitory concentration (causing 50% reduction of cortisol or cortisone) was read from the chart.

11β-HSD2 = target: T2, 11β-HSD2 (Homo sapiens, UniProt P80365); assay: Inhibition of 11β-HSD2 (cortisol to cortisone, human microsomes, cortisol ELISA); type: biochemical; conditions: 10 µM compound, 2.5 h at 37 °C
T2 construct: Human liver microsomes were used as a source of 11β-HSD2 enzyme; tissue XenoTech Lot No. 1710160; host or cells: human kidney microsomes, mixed gender (the method paragraph says human liver microsomes)
T2 sequence (P80365 1-405): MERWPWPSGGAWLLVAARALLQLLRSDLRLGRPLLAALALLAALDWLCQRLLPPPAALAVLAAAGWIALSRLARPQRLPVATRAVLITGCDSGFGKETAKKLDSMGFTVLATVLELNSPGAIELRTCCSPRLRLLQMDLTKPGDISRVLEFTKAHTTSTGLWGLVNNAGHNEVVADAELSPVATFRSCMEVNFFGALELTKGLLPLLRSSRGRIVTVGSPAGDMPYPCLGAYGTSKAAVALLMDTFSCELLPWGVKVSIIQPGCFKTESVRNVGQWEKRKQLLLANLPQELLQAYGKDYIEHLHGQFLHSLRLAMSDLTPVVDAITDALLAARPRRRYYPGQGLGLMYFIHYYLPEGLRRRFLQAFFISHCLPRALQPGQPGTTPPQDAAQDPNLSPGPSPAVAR
Procedure: […] […] The level of unreacted cortisol was measured by commercially available ELISA kit.
as §1

T1 sequence (P28845 whole entry): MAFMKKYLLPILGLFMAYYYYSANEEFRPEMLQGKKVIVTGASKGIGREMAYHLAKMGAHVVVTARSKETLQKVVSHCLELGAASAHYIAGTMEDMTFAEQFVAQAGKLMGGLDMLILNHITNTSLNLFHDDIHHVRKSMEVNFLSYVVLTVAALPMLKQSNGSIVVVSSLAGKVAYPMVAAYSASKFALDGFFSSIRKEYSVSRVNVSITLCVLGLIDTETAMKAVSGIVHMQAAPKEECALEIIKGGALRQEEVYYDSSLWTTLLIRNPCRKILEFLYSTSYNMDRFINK

Row | Structure (SMILES) | inhibition at 10 µM (11β-HSD1) | IC50 (11β-HSD1) | inhibition at 10 µM (11β-HSD2) | melting point
1 | O=C1CSC(NC23CC4CC(CC(C4)C2)C3)=N1 [3a, 2-(adamantan-1-ylamino)thiazol-4(5H)-one] | 22.3 ± 5.31% | > 10 µM | 29.8 ± 4.21% | 271 to 273 °C
2 | CC1SC(NC23CC4CC(CC(C4)C2)C3)=NC1=O (stereo not drawn) [3b, 2-(adamantan-1-ylamino)-5-methylthiazol-4(5H)-one] | 62.1 ± 3.59% | 3.52 ± 0.19 µM | 44.7 ± 4.19% | 265 to 267 °C
3 | CCC1SC(NC23CC4CC(CC(C4)C2)C3)=NC1=O (stereo not drawn) [3c, 2-(adamantan-1-ylamino)-5-ethylthiazol-4(5H)-one] | 69.2 ± 5.12% | 5.44 ± 0.32 µM | 14.4 ± 1.16% | 257 to 259 °C
4 | CCCC1SC(NC23CC4CC(CC(C4)C2)C3)=NC1=O (stereo not drawn) [3d, 2-(adamantan-1-ylamino)-5-propylthiazol-4(5H)-one] | 72.4 ± 2.63% | 3.23 ± 0.26 µM | 28.9 ± 4.11% | 247 to 249 °C
5 | CC(C)C1SC(NC23CC4CC(CC(C4)C2)C3)=NC1=O (stereo not drawn) [3e, 2-(adamantan-1-ylamino)-5-isopropylthiazol-4(5H)-one] | 76.4 ± 2.55% | 1.19 ± 0.21 µM | 16.4 ± 2.06% | 239 to 241 °C
6 | CC1(C)SC(NC23CC4CC(CC(C4)C2)C3)=NC1=O [3f, 2-(adamantan-1-ylamino)-5,5-dimethylthiazol-4(5H)-one] | 66 ± 1.12% | 6.11 ± 0.62 µM | 24.5 ± 3.24% | 208 to 210 °C
7 | O=C1N=C(NC23CC4CC(CC(C4)C2)C3)SC1c1ccccc1 (stereo not drawn) [3g, 2-(adamantan-1-ylamino)-5-phenylthiazol-4(5H)-one] | 46.3 ± 5.53% | > 10 µM | 18.3 ± 3.18% | 
8 | O=C1N=C(NC23CC4CC(CC(C4)C2)C3)SC1c1ccc(Br)cc1 (stereo not drawn) [3h, 2-(adamantan-1-ylamino)-5-(4-bromophenyl)thiazol-4(5H)-one] | 15.3 ± 0.49% | > 10 µM | 41.8 ± 6.12% | 
9 | O=C1N=C(NC23CC4CC(CC(C4)C2)C3)SC12CCCCC2 [3i, 2-(adamantan-1-ylamino)-1-thia-3-azaspiro [4.5]dec-2-en-4-one] | 82.8 ± 2.05% | 0.31 ± 0.05 µM | > 44% | 268 to 270 °C
10 | O=C1N=C(NC23CC4CC(CC(C4)C2)C3)SC12CCC2 [3j, 6-(adamantan-1-ylamino)-5-thia-7-azaspiro[3.4]oct-6-en-8-one] | 74.1 ± 2.85% | 3.32 ± 0.24 µM | 41.4 ± 4.22% | 265 to 266 °C
11 | CC1(C)[C@@H](OC(=O)CCC(=O)O)CC[C@]2(C)[C@H]3C(=O)C=C4[C@@H]5C[C@@](C)(C(=O)O)CC[C@]5(C)CC[C@@]4(C)[C@]3(C)CC[C@@H]12 [carbenoxolone, reference compound] | 84.8 ± 6.23% |  |  | 
